Measurements taken from patent publication US11154587B2, “Use of peptides to stimulate the immune system” (DIACCURATE, priority 2015, dated 2021).
“Also recorded” adds a separate entry of the source. Where a SMILES comes first, the peptide text is derived from it. [ ]: non-standard residue; d: D form. 2Nal = N[C@@H](Cc1ccc2ccccc2c1)C(=O)O

How the values were obtained:
[1] = target: T1, PLA2 GIB contained in the plasma of viremic patients (Homo sapiens, UniProt P04054); assay: Bioassay: inhibition of IL-7-induced NTpSTAT5 in healthy donor CD4 T cells by plasma/sera of viremic HIV-infected patients; format: cell-based
T1 construct: CD4 lymphocytes purified from healthy donors were exposed to sera from viremic HIV-infected patients at 1% or 3% dilution; from tissue; host or cells: plasma/sera of viremic HIV-infected patients
Description: FIG. 3: Peptide I restores the activity of CD4 lymphocytes: CD4 lymphocytes purified from healthy donors were exposed to sera from viremic HIV-infected patients at 1% or 3% dilution. […] Five sera were tested and the results are given as the median+/−SD.
Viremic patients (VP) included in the study had been HIV-positive for more than one year. […] All blood samples from VP were drawn at Hôpital Bicêtre or Centre Hospitalier de Gonesse.
(§1) Inhibition of IL-7-induced phosphorylated STAT5 nuclear translocation (NTpSTAT) was measured as follows: VP plasma (5 or 10%) was first incubated with purified HD CD4 T cells (20 min) before stimulation by IL-7 (2 nM, 15 min.). Cells were then plated on polylysine coated glass slides before fixation by PFA (1.5%) and permeabilization by methanol (90% at −20° C.). pSTAT5 was then stained by rabbit anti-STAT5 and labeled with goat anti-rabbit-Atto642. The cells were analyzed by pulsed STED microscopy and the number of nuclei expressing pSTAT5 were counted.
We have shown that PLA2 GIB contained in the plasma of viremic patients induces a blockade of IL-7-induced nuclear translocation of phospho STAT5 (NT pSTAT5). […] Here we tested the effects of Peptide I on the capacity of the sera from VP to block IL-7-induced NTpSTAT5.
The effect of plasma from various HIV viremic patients (at least 5) were titrated on the inhibition of IL-7-induced NTpSTAT5. […]

[2] = target: T2, Recombinant PLA2G1B (Homo sapiens, UniProt P04054); assay: Bioassay: recombinant PLA2GIB-mediated inhibition of IL-7-induced nuclear translocation of phospho STAT5 in CD4 T cells (STED microscopy); format: cell-based
T2 construct: sPLA2GIB was produced in E. Coli; Inclusion bodies were solubilized in urea and afterwards renatured; made in house; host or cells: E. coli
Description: FIG. 1: Peptide I inhibits sPLA2G1B: Recombinant PLA2G1B (75 nanoM) was first exposed 30 mn to indicated concentrations of Peptide I. The mixture was then applied in the bioassay described in Materials and Methods. % inhibition of IL-7-induced nuclear translocation of phospho STAT5 was measured by STED microscopy. The results of two experiments are shown.
FIG. 2: Calculation of IC50 of Peptide I: Experimental data were analyzed by Prism software in order to precisely calculate the IC50.
sPLA2GIB was produced in E. Coli. Inclusion bodies were solubilized in urea and afterwards renatured. sPLA2GIB was further purified by HPLC. Homogeneity of the preparations was verified by MassSpectrometry (Malditoff). The specific activity of the enzyme was always measured and compared to standard preparations.
as §1
We first investigated the effects of different doses of Peptide I on the biological activity of recombinant PLA2GIB as tested in the bioassay described in Materials and Methods. […] The experiment was repeated twice. From the experimental data we derived the corresponding theoretical curve that gives the IC50. For Peptide I, IC 50 is about 4.9 microM (FIG. 2).

T2 sequence (P04054 23-148): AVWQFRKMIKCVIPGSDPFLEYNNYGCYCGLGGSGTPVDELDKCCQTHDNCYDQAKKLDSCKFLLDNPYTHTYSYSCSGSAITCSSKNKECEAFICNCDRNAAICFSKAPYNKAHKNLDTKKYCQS
T1 sequence (P04054 23-148): as above

CC(C)C[C@@H]1NC(=O)[C@H](Cc2ccc3ccccc3c2)NC(=O)[C@H](CCCNC(=N)N)NC(=O)[C@H](Cc2ccc3ccccc3c2)NC(=O)[C@H](CO)NC1=O [Peptide I, cyclic(2-NaphthylAla-Leu-Ser-2-NaphthylAla-Arg)] (cyclo([2Nal]LS[2Nal]R); ring closure inferred)
reversal of sera-induced inhibition of IL-7-induced nuclear translocation of pSTAT5 ([1]; 15 microM Peptide I, sera from viremic HIV-infected patients at 1% or 3% dilution, five sera): totally reversed this inhibition; also recorded: completely reverted the activity of the sera | inhibition achieved when the plasma is used ([1]; plasma of viremic patients): around 100% | inhibitory effect on recombinant PLA2GIB activity ([2]; 5 microM Peptide I): effective | inhibitory effect on recombinant PLA2GIB activity ([2]; 10 microM Peptide I): very strong | IC50 ([2]; recombinant PLA2G1B 75 nanoM exposed 30 mn to Peptide I, calculated with Prism from two experiments, read-out: IC50 (inhibition of recombinant PLA2GIB biological activity)): ~4.9 µM | maximum inhibition (plateau) with the recombinant enzyme ([2]; recombinant pure enzyme in serum free buffer): around 80%
